# Laboratory results taken from patent publication US10092537B2, “Use for PAI-1 inhibitor” (RENASCIENCE CO., LTD., priority 2013, dated 2018).
# Columns and labels:
# CML cells [1] = test: Chronic myelogenous leukemia model mice, compound a alone, imatinib, combination (Experimental Example 16); type: in vivo; conditions: imatinib 150 mg/kg/day alone
# Description: (§1) Group 1: placebo group (physiological saline was administered via gavage)
# Group 2: compound a group (compound a [100 mg/kg/day] was administered via gavage)
# Group 3: imatinib group (imatinib [150 mg/kg/day] was administered via gavage)
# Group 4: imatinib+compound a group (imatinib [150 mg/kg/day] and compound a [100 mg/kg/day] were administered via gavage)
# 10 days after (day 10) the day on which CML cells were intravenously inoculated (day 0), administration of test drugs to the groups was started. The placebo group, the compound a group, and the imatinib group were administered the respective test drugs once a day from day 10 to day 16 (7 doses in total). The imatinib+compound a group was administered imatinib once a day from day 10 to day 16 (7 doses in total), and also administered compound a once a day from day 10 to day 16 (7 doses in total).
# [2] = system: CML cells (32Dp210-GFP cells); test: Chronic myelogenous leukemia model mice, imatinib and compound a (Experimental Example 11); type: in vivo, C3H/HeJ mice; conditions: imatinib 150 mg/kg/day alone
# Description: p210(BCR-ABL) gene was inserted into a MIGR1 vector, and GFP cDNA was further incorporated as a reporter gene downstream of the gene (hereinafter, the vector is referred to as “p210-GFP”). p210-GFP was infected with 32D cells (C3H/HeJ mice cell line), and chronic myelogenous leukemia (hereinafter, referred to as “CML”) cells were prepared. 2.5×10^5 of the thus-obtained CML cells (32Dp210(BCR-ABL)-GFP cells, hereinafter, referred to as “32Dp210-GFP cells”) were intravenously administered into the retro-orbital plexus of C3H/HeJ mice. 7 to 10 days after the transplantation, the abundance ratio of GFP cells in the peripheral blood was analyzed, and mice with more than 3% of abundance ratio were used as chronic myelogenous leukemia model mice in the following experiments.
# 15 chronic myelogenous leukemia model mice prepared by using the procedure described above were divided into the following 3 groups (each group: n=15), and a test drug was administered to the mice in accordance with the protocol shown in FIG. 15A.
# as §1
# (§2) Group 2: imatinib group (imatinib [150 mg/kg/day] was administered via gavage)
# Group 3: imatinib+compound a group (imatinib [150 mg/kg/day] and compound a [100 mg/kg/day] were administered via gavage)
# 10 days (day 10) after the day on which CML cells were intravenously inoculated (day 0), administration of test drugs to the groups was started. The placebo group and the imatinib group were administered the respective test drugs once a day from day 10 to day 16 (7 doses in total). The imatinib+compound a group was administered imatinib once a day from day 10 to day 16 (7 doses in total), and also administered compound a once a day from day 10 to day 14 (5 doses in total).
# As described above, 32Dp210-GFP includes GFP as a reporter gene, and thus, the CML cells having 32Dp210-GFP inserted (32Dp210-GFP cells) are GFP-positive. Therefore, using FACS (FACS (BD Biosciences: FACSCalibur), the frequency of CML cells (32Dp210-GFP cells) in mononucleic cells of the bone marrow and spleen was measured and compared between the imatinib group and the imatinib+compound a group.
# CML cells [3] = test: Chronic myelogenous leukemia model mice, CML cells engrafted onto bone marrow by FACS (Experimental Example 15); type: in vivo
# Description: Chronic myelogenous leukemia model mice prepared in accordance with the procedure of Experimental Example 11 (1) were divided into 3 groups (each group: n=15) and administered respective test drugs.
# as §1, §2
# (§3) Group 3: imatinib+compound c group (imatinib [150 mg/kg/day] and compound c [10 mg/kg/day] were administered via gavage)
# (§4) 8 days (day 8) after the day on which CML cells were intravenously inoculated (day 0), administration of test drugs to the groups was started. The placebo group and the imatinib group were administered the respective test drugs once a day from day 8 to day 14 (7 doses in total). The imatinib+compound c group was administered imatinib once a day from day 8 to day 14 (7 doses in total), and also administered compound c once a day from day 8 to day 14 (7 doses in total).
# CML cells engrafted onto bone marrow were analyzed by FACS immediately before the administration of a test drug (day 8; “immediately before antitumor agent treatment” in FIG. 19), immediately after the completion of administration of a test drug (day 14; “immediately after antitumor agent treatment” in FIG. 19), and day 28 from the start of administration of a test drug (day 36; “after 28 days” in FIG. 19). […] About 50% leukemia cells were grafted on the bone marrow immediately before administration of a test drug (day 8; “immediately before antitumor agent treatment” in FIG. 19). After the tumor-bearing mice were administered a test drug 7 times (day 14), the proportion of CML cells was analyzed. […] All of the mice in the group administered physiological saline died.
# CML cells [4] = test: Chronic myelogenous leukemia model mice, imatinib with compound d or compound e (Experimental Example 17); type: in vivo; conditions: imatinib 150 mg/kg/day alone
# Description: as §1, §2
# Group 3: imatinib+compound d group (imatinib [150 mg/kg/day] and compound d [10 mg/kg/day] were administered via gavage)
# Group 4: imatinib+compound e group (imatinib [150 mg/kg/day] and compound e [10 mg/kg/day] were administered via gavage)
# 8 days after (day 8) the day (day 0) on which CML cells were intravenously inoculated, administration of test drugs to the groups was started. The placebo group and the imatinib group were administered the respective test drugs once a day from day 8 to day 14 (7 doses in total). The imatinib+compound d group and imatinib+compound e group were administered imatinib once a day from day 8 to day 14 (7 doses in total), and also administered compound d or e once a day from day 8 to day 14 (7 doses in total).
# [5] = system: CML cells (32Dp210-GFP cells); test: Chronic myelogenous leukemia model mice, imatinib and compound c (Experimental Example 12); type: in vivo; conditions: imatinib 150 mg/kg/day alone
# Description: Chronic myelogenous leukemia model mice prepared in the same manner as in Experimental Example 11 were divided into the following 3 groups (each group: n=10), and the groups were administered respective test drugs in accordance with the protocol shown in FIG. 15A.
# as §1, §2, §3
# as §4, with “cells (32Dp210-GFP cells)” for “cells”, “of the” for “of”
# CML cells [6] = test: Chronic myelogenous leukemia model mice, imatinib, PAI-1 inhibitor and G-CSF neutralizing antibody (Experimental Example 14); type: in vivo
# Description: In this experiment, whether G-CSF is involved in the effect was examined. Compound a was used as a PAI-1 inhibitor.
# as §1
# Group 2: IM group (imatinib [150 mg/kg/day] was administered via gavage)
# Group 3: IM+anti-G-CSF group (imatinib [150 mg/kg/day] was administered via gavage, G-CSF neutralizing antibody [500 μg/kg/day] was subcutaneously administered)
# Group 4: IM+TM group (imatinib [150 mg/kg/day] and compound a [100 mg/kg/day] were administered via gavage)
# Group 5: IM+TM+anti-G-CSF group (imatinib [150 mg/kg/day] and compound a [100 mg/kg/day] were administered via gavage, and G-CSF neutralizing antibody [500 μg/kg/day] was subcutaneously administered)
# The day on which CML cells were inoculated was set as day 0, and each test drug was administered from day 8 to day 14 (7 doses in total).
smiles,measurement,setting,value
"Cc1ccc(NC(=O)c2ccc(CN3CCN(C)CC3)cc2)cc1Nc1nccc(-c2cccnc2)n1 [imatinib, reference compound]",survival,CML cells [1],all of the mice died by day 40
same,frequency of 32Dp210-GFP cells in bone-marrow mononucleic cells,[2],about 55%
same,frequency of CML cells (32Dp210-GFP cells) in the spleen,[2],about 76%
same,survival,[2],all of the mice died by day 40
same,median survival period,[2]; placebo 14 days,27 days
same,CML (leukemia) cells in the bone marrow,"CML cells [3]; imatinib 150 mg/kg/day alone, day 8 to day 14, analysed day 36",55.5%
same,proportion of CML cells in the bone marrow,"CML cells [3]; imatinib alone, day 14, after 7 doses, about 50% before treatment",marked decrease
same,survival,CML cells [4],all of the mice died by day 40
same,survival,[5],all of the mice died by day 35
same,median survival period,[5]; placebo 15.5 days,23.5 days
same,median survival period,"CML cells [6]; IM group: imatinib 150 mg/kg/day alone, placebo 15 days",22 days
same,survival,CML cells [6]; IM group: imatinib alone,all of the mice died by day 30
same,survival,CML cells [6]; IM+anti-G-CSF group,all of the mice died by day 30
same,median survival period,CML cells [6]; IM+anti-G-CSF group: imatinib 150 mg/kg/day + G-CSF neutralizing antibody 500 μg/kg/day,23 days
